Assay results published in patent US12419874B2, “GLP-1R agonist compound and use thereof” (Chongqing Pharmaceutical Research Institute Co., Ltd., priority 2024, dated 2025).

Biological target: GLP-1R (Homo sapiens, UniProt P43220)
Test: GLP-1R agonistic activity by One-Lite luciferase assay in HEK293-GLP-1R-luc cells (Example 59)
Format: cell-based
Conditions: 6 h incubation, read-out: cAMP EC50
Procedure: The agonistic activities of the compounds of the present disclosure on GLP-1R were evaluated by detecting the generation of cAMP.
• (1) Cell line: HEK293-GLP-1R-luc Stable Cell Line (Cobioer, CBP71117); • (2) Culture medium: DMEM+10% FBS (Gibco); • (3) Kit: One-Lite™ kit Luciferase Assay System (Vazyme). 2. Experimental Procedures • (1) HEK293-GLP1R cells were inoculated in a 96-well plate at a density of 30000 cells per well; • (2) 10× working solution of each compound was formulated; • (3) 10 μL of 10× working solution of each compound was added to corresponding well and incubated at 37° C. for 6 h; • (4) 100 μL of One-Lite Luciferase Assay Substrate formulated using One-Lite Luciferase Assay Buffer was added to each well; • (5) The plate was incubated at room temperature for 3 min; • (6) The plate was read by a multimode microplate reader to detect chemiluminescence. 3. Data Analysis • (1) % Activity was calculated by the following formula: % Activity=100−(Signalcmpd−SignalAve-PC)/(SignalAve-VC−SignalAve-PC)×100 • (2) The dose-response curve was plotted to calculate EC50: Y=Bottom+(Top−Bottom)/(1+10^(Log EC50−X)*HillSlope)) • X: log of agonist concentration; Y: Activity. 4. Experimental Results

Sequence of GLP-1R (P43220 24-463): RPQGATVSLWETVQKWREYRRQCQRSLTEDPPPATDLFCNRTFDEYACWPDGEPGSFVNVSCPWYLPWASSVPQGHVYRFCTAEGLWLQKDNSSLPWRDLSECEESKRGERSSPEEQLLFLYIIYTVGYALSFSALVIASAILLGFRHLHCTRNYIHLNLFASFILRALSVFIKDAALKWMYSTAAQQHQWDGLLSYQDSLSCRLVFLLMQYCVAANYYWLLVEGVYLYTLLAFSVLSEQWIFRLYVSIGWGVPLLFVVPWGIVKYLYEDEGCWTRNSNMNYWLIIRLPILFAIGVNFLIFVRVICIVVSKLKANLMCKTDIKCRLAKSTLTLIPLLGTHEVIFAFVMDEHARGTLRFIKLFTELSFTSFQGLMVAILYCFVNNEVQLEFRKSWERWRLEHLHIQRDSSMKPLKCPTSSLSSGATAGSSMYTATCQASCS

SMILES | EC50 [nM]
Cc1cc(-n2nc3c(c2-n2ccn(-c4ccc5c(cnn5C)c4F)c2=O)[C@H](C)N(C(=O)c2cc4cc([C@H]5CCOC(C)(C)C5)ccc4n2[C@@]2(c4noc(=O)[nH]4)C[C@@H]2C)CC32CN(C(=O)C(F)(F)F)C2)cc(C)c1F [Compound 167] | ≤ 20
Cc1cc(-n2nc3c(c2-n2ccn(-c4ccc5c(cnn5C)c4F)c2=O)[C@H](C)N(C(=O)c2cc4cc([C@H]5CCOC(C)(C)C5)ccc4n2[C@@]2(c4noc(=O)[nH]4)C[C@@H]2C)CC32CN(S(C)(=O)=O)C2)cc(C)c1F [Compound 168] | ≤ 20
Cc1cc(-n2nc3c(c2-n2ccn(-c4ccc5c(cnn5C)c4F)c2=O)[C@H](C)N(C(=O)c2cc4cc([C@H]5CCOC(C)(C)C5)ccc4n2C2(c4noc(=O)[nH]4)CC2)CC32CC2)cc(C)c1F [Compound 169] | ≤ 20
C[C@H]1c2c(nn(-c3ccc(F)c(C4CC4)c3)c2-n2ccn(-c3ccc4c(cnn4C)c3F)c2=O)C2(CC2)CN1C(=O)c1cc2cc([C@H]3CCOC(C)(C)C3)ccc2n1C1(c2noc(=O)[nH]2)CC1 [Compound 170] | ≤ 20
C[C@H]1c2c(nn(-c3ccc(F)c(C4CC4)c3)c2-n2ccn(-c3ccc4c(cnn4C)c3F)c2=O)C2(CC2)CN1C(=O)c1cc2cc([C@H]3CCOC(C)(C)C3)ccc2n1[C@@]1(c2noc(=O)[nH]2)C[C@@H]1C [Compound 171] | ≤ 20
Cc1cc(-n2nc3c(c2-n2ccn(-c4ccc5c(cnn5C)c4F)c2=O)[C@H](C)N(C(=O)c2cc4cc([C@H]5CCOC(C)(C)C5)ccc4n2[C@@]2(c4noc(=O)[nH]4)C[C@@H]2C)CC32CC=CC2)cc(C)c1F [Compound 172] | ≤ 20
Cc1cc(-n2nc3c(c2-n2ccn(-c4ccc5c(cnn5C)c4F)c2=O)[C@H](C)N(C(=O)c2cc4cc(N5CCOC(C)(C)C5)ccc4n2[C@@]2(c4noc(=O)[nH]4)C[C@@H]2C)CC32CC2)cc(C)c1F [Compound 173] | 20 to 100
Cc1cc(-n2nc3c(c2-n2ccn(-c4ccc5c(cnn5C)c4F)c2=O)[C@H](C)N(C(=O)c2cc4cc(C5CCOCC5)ccc4n2C2(c4noc(=O)[nH]4)CC2)CC32CC2)cc(C)c1F [Compound 174] | 100 to 300
Cc1cc(-n2nc3c(c2-n2ccn(-c4ccc5c(cnn5C)c4F)c2=O)[C@H](C)N(C(=O)c2cc4cc(C5CCOCC5)ccc4n2[C@@]2(c4noc(=O)[nH]4)C[C@@H]2C)CC32CC2)cc(C)c1F [Compound 175] | 20 to 100
Cc1cc(-n2nc3c(c2-n2ccn(-c4ccc5c(cnn5C)c4F)c2=O)[C@H](C)N(C(=O)c2cc4cc(N5CCOC(C)(C)C5)ccc4n2C2(c4noc(=O)[nH]4)CC2)CC32CC2)cc(C)c1F [Compound 177] | ≤ 20
Cc1cc(-n2nc3c(c2-n2ccn(-c4ccc5c(cnn5C)c4F)c2=O)[C@H](C)N(C(=O)c2cc4cc([C@H]5CCOC(C)(C)C5)ccc4n2[C@@]2(c4noc(=O)[nH]4)C[C@@H]2C)CC32CC(C)(O)C2)cc(C)c1F (stereo partly shown) [Compound 179] | ≤ 20
Cc1cc(-n2nc3c(c2-n2ccn(-c4ccc5c(cnn5C)c4F)c2=O)[C@H](C)N(C(=O)c2cc4cc([C@H]5CCOC(C)(C)C5)ccc4n2[C@@]2(c4noc(=O)[nH]4)C[C@@H]2C)CC32CC(O)C2)cc(C)c1F (stereo partly shown) [Compound 181] | ≤ 20
Cc1cc(-n2nc3c(c2-n2ccn(-c4ccc5c(cnn5C)c4F)c2=O)[C@H](C)N(C(=O)c2cc4cc([C@H]5CCOC(C)(C)C5)ccc4n2[C@@]2(c4noc(=O)[nH]4)C[C@@H]2C)CC32CC(F)C2)cc(C)c1F (stereo partly shown) [Compound 182] | ≤ 20
Cc1cc(-n2nc3c(c2-n2ccn(-c4ccc5c(cnn5C)c4F)c2=O)[C@H](C)N(C(=O)c2cc4cc([C@H]5CCOC(C)(C)C5)ccc4n2[C@@]2(c4noc(=O)[nH]4)C[C@@H]2C)CC32CC(N)C2)cc(C)c1F (stereo partly shown) [Compound 183] | ≤ 20
COC1CC2(C1)CN(C(=O)c1cc3cc([C@H]4CCOC(C)(C)C4)ccc3n1[C@@]1(c3noc(=O)[nH]3)C[C@@H]1C)[C@@H](C)c1c2nn(-c2cc(C)c(F)c(C)c2)c1-n1ccn(-c2ccc3c(cnn3C)c2F)c1=O (stereo partly shown) [Compound 184] | ≤ 20
CCOC1CC2(C1)CN(C(=O)c1cc3cc([C@H]4CCOC(C)(C)C4)ccc3n1[C@@]1(c3noc(=O)[nH]3)C[C@@H]1C)[C@@H](C)c1c2nn(-c2cc(C)c(F)c(C)c2)c1-n1ccn(-c2ccc3c(cnn3C)c2F)c1=O (stereo partly shown) [Compound 187] | ≤ 20

Further lines, results first:

EC50 [nM] | SMILES
≤ 20 | Cc1cc(-n2nc3c(c2-n2ccn(-c4ccc5c(cnn5C)c4F)c2=O)[C@H](C)N(C(=O)c2cc4cc([C@H]5CCOC(C)(C)C5)ccc4n2[C@@]2(c4noc(=O)[nH]4)C[C@@H]2C)CC32CCCCO2)cc(C)c1F (stereo partly shown) [Compound 39]
≤ 20 | Cc1cc(-n2nc3c(c2-n2ccn(-c4ccc5c(cnn5C)c4F)c2=O)[C@H](C)N(C(=O)c2cc4cc([C@H]5CCOC(C)(C)C5)ccc4n2[C@@]2(c4noc(=O)[nH]4)C[C@@H]2C)CC32CCN(C=O)CC2)cc(C)c1F [Compound 64]
≤ 20 | Cc1cc(-n2nc3c(c2-n2ccn(-c4ccc5c(cnn5C)c4F)c2=O)[C@H](C)N(C(=O)c2cc4cc([C@H]5CCOC(C)(C)C5)ccc4n2[C@@]2(c4noc(=O)[nH]4)C[C@@H]2C)CC32CCN(C)C2)cc(C)c1F (stereo partly shown) [Compound 79]
≤ 20 | Cc1cc(-n2nc3c(c2-n2ccn(-c4ccc5c(cnn5C)c4F)c2=O)[C@H](C)N(C(=O)c2cc4cc([C@H]5CCOC(C)(C)C5)ccc4n2[C@@]2(c4noc(=O)[nH]4)C[C@@H]2C)CC32CCN(C=O)C2)cc(C)c1F (stereo partly shown) [Compound 83]
≤ 20 | CC(=O)N1CCC2(CC1)CN(C(=O)c1cc3cc([C@H]4CCOC(C)(C)C4)ccc3n1[C@@]1(c3noc(=O)[nH]3)C[C@@H]1C)[C@@H](C)c1c2nn(-c2cc(C)c(F)c(C)c2)c1-n1ccn(-c2ccc3c(cnn3C)c2F)c1=O [Compound 91]
≤ 20 | C[C@H]1C[C@]1(c1noc(=O)[nH]1)n1c(C(=O)N2C3CCCC2c2c(nn(-c4ccc(F)c(C5CC5)c4)c2-n2ccn(-c4ccc5c(cnn5C)c4F)c2=O)C3)cc2cc([C@H]3CCOC(C)(C)C3)ccc21 (stereo partly shown) [Compound 151]
≤ 20 | Cc1cc(-n2nc3c(c2-n2ccn(-c4ccc5c(cnn5C)c4F)c2=O)[C@H](C)N(C(=O)c2cc4cc([C@H]5CCOC(C)(C)C5)ccc4n2[C@@]2(c4noc(=O)[nH]4)C[C@@H]2C)CC32CCN(C(=O)C(F)(F)F)CC2)cc(C)c1F [Compound 155]
≤ 20 | Cc1cc(-n2nc3c(c2-n2ccn(-c4ccc5c(cnn5C)c4F)c2=O)[C@H](C)N(C(=O)c2cc4cc([C@H]5CCOC(C)(C)C5)ccc4n2[C@@]2(c4noc(=O)[nH]4)C[C@@H]2C)CC32CCN(S(C)(=O)=O)CC2)cc(C)c1F [Compound 156]
≤ 20 | Cc1cc(-n2nc3c(c2-n2ccn(-c4ccc5c(cnn5C)c4F)c2=O)[C@H](C)N(C(=O)c2cc4cc([C@H]5CCOC(C)(C)C5)ccc4n2[C@@]2(c4noc(=O)[nH]4)C[C@@H]2C)CC32CCN(C(=O)C3CC3)CC2)cc(C)c1F [Compound 157]
≤ 20 | COCC(=O)N1CCC2(CC1)CN(C(=O)c1cc3cc([C@H]4CCOC(C)(C)C4)ccc3n1[C@@]1(c3noc(=O)[nH]3)C[C@@H]1C)[C@@H](C)c1c2nn(-c2cc(C)c(F)c(C)c2)c1-n1ccn(-c2ccc3c(cnn3C)c2F)c1=O [Compound 158]
≤ 20 | COC(=O)N1CCC2(CC1)CN(C(=O)c1cc3cc([C@H]4CCOC(C)(C)C4)ccc3n1[C@@]1(c3noc(=O)[nH]3)C[C@@H]1C)[C@@H](C)c1c2nn(-c2cc(C)c(F)c(C)c2)c1-n1ccn(-c2ccc3c(cnn3C)c2F)c1=O [Compound 159]
≤ 20 | Cc1cc(-n2nc3c(c2-n2ccn(-c4ccc5c(cnn5C)c4F)c2=O)[C@H](C)N(C(=O)c2cc4cc([C@H]5CCOC(C)(C)C5)ccc4n2[C@@]2(c4noc(=O)[nH]4)C[C@@H]2C)CC32CCN(C(=O)[C@H](C)N)CC2)cc(C)c1F [Compound 160]
≤ 20 | Cc1cc(-n2nc3c(c2-n2ccn(-c4ccc5c(cnn5C)c4F)c2=O)[C@H](C)N(C(=O)c2cc4cc([C@H]5CCOC(C)(C)C5)ccc4n2[C@@]2(c4noc(=O)[nH]4)C[C@@H]2C)CC32CCN(C(=O)CN)CC2)cc(C)c1F [Compound 161]
≤ 20 | Cc1cc(-n2nc3c(c2-n2ccn(-c4ccc5c(cnn5C)c4F)c2=O)[C@H](C)N(C(=O)c2cc4cc([C@H]5CCOC(C)(C)C5)ccc4n2[C@@]2(c4noc(=O)[nH]4)C[C@@H]2C)CC32CCN(C(N)=O)CC2)cc(C)c1F [Compound 162]
≤ 20 | CNC(=O)N1CCC2(CC1)CN(C(=O)c1cc3cc([C@H]4CCOC(C)(C)C4)ccc3n1[C@@]1(c3noc(=O)[nH]3)C[C@@H]1C)[C@@H](C)c1c2nn(-c2cc(C)c(F)c(C)c2)c1-n1ccn(-c2ccc3c(cnn3C)c2F)c1=O [Compound 163]
≤ 20 | Cc1cc(-n2nc3c(c2-n2ccn(-c4ccc5c(cnn5C)c4F)c2=O)[C@H](C)N(C(=O)c2cc4cc([C@H]5CCOC(C)(C)C5)ccc4n2[C@@]2(c4noc(=O)[nH]4)C[C@@H]2C)CC32CN(C)C2)cc(C)c1F [Compound 164]
≤ 20 | Cc1cc(-n2nc3c(c2-n2ccn(-c4ccc5c(cnn5C)c4F)c2=O)[C@H](C)N(C(=O)c2cc4cc([C@H]5CCOC(C)(C)C5)ccc4n2[C@@]2(c4noc(=O)[nH]4)C[C@@H]2C)CC32CN(C=O)C2)cc(C)c1F [Compound 165]
≤ 20 | CC(=O)N1CC2(C1)CN(C(=O)c1cc3cc([C@H]4CCOC(C)(C)C4)ccc3n1[C@@]1(c3noc(=O)[nH]3)C[C@@H]1C)[C@@H](C)c1c2nn(-c2cc(C)c(F)c(C)c2)c1-n1ccn(-c2ccc3c(cnn3C)c2F)c1=O [Compound 166]
